The values below are quoted from earlier work in patent US20100256576A1, “Disinfectant Compositions, Methods and Systems” (TYCO HEALTHCARE GROUP LP, priority 2009, published 2010).

The conditions of this series: up to 3000 mg infused over 3 hours, daily, humans with hypercalcemia.

As for `O=C([O-])CN(CCN(CC(=O)[O-])CC(=O)O)CC(=O)O.[Na+].[Na+]` [EDTA, Disodium EDTA], the “tolerability of infused dose” value is “well tolerated”.
